Measurements from ChEMBL document CHEMBL5584246, “Novel dihydropyrimidines as promising EGFR & HER2 inhibitors: Insights from experimental and computational studies” (Eur J Med Chem, 2024).

Tested on: not listed separately
Assay: Inhibition of EGFR expression in human MCF7 cells assessed as positive expression region (M2) at 50 nM incubated for 24 hrs by flow cytometry analysis (reference value: 99.36%)
Format: functional
Settings: not given

Compound	inhibition at 0.05 µM [%]
COc1ccc(NC(=O)C2=C(C)NC(=S)NC2c2ccc(OCc3ccccc3)c(OC)c2)c(OC)c1 (stereo not given)	38.4
COc1ccc(NC(=O)C2=C(C)NC(=O)NC2c2ccc(OCc3ccccc3)c(OC)c2)c(OC)c1 (stereo not given)	33.8

Tested on: not listed separately
Assay: Inhibition of HER2 expression in human MCF7 cells assessed as positive expression region (M2) at 100 nM incubated for 24 hrs by flow cytometry analysis (reference value: 99.09%)
Format: functional
Settings: not given

Compound	inhibition at 0.1 µM [%]
COc1ccc(NC(=O)C2=C(C)NC(=S)NC2c2ccc(OCc3ccccc3)c(OC)c2)c(OC)c1 (stereo not given)	28.3
COc1ccc(NC(=O)C2=C(C)NC(=O)NC2c2ccc(OCc3ccccc3)c(OC)c2)c(OC)c1 (stereo not given)	11.6

Tested on: not listed separately
Assay: Inhibition of HER2 expression in human MCF7 cells assessed as negative expression region (M1) at 1000 nM incubated for 24 hrs by flow cytometry analysis (reference value: 0.98%)
Format: functional
Settings: not given

Compound	inhibition at 1 µM [%]
COc1ccc(NC(=O)C2=C(C)NC(=S)NC2c2ccc(OCc3ccccc3)c(OC)c2)c(OC)c1 (stereo not given)	92.7
COc1ccc(NC(=O)C2=C(C)NC(=O)NC2c2ccc(OCc3ccccc3)c(OC)c2)c(OC)c1 (stereo not given)	96.9

Tested on: not listed separately
Assay: Inhibition of HER2 expression in human MCF7 cells assessed as negative expression region (M1) at 500 nM incubated for 24 hrs by flow cytometry analysis (reference value: 0.98%)
Format: functional
Settings: not given

Compound	inhibition at 0.5 µM [%]
COc1ccc(NC(=O)C2=C(C)NC(=S)NC2c2ccc(OCc3ccccc3)c(OC)c2)c(OC)c1 (stereo not given)	78.4
COc1ccc(NC(=O)C2=C(C)NC(=O)NC2c2ccc(OCc3ccccc3)c(OC)c2)c(OC)c1 (stereo not given)	95

Tested on: not listed separately
Assay: Inhibition of EGFR expression in human MCF7 cells assessed as negative expression region (M1) at 500 nM incubated for 24 hrs by flow cytometry analysis (reference value: 0.66%)
Format: functional
Settings: not given

Compound	inhibition at 0.5 µM [%]
COc1ccc(NC(=O)C2=C(C)NC(=S)NC2c2ccc(OCc3ccccc3)c(OC)c2)c(OC)c1 (stereo not given)	83.2
COc1ccc(NC(=O)C2=C(C)NC(=O)NC2c2ccc(OCc3ccccc3)c(OC)c2)c(OC)c1 (stereo not given)	91.1

Tested on: not listed separately
Assay: Inhibition of EGFR expression in human MCF7 cells assessed as positive expression region (M2) at 500 nM incubated for 24 hrs by flow cytometry analysis (reference value: 99.36%)
Format: functional
Settings: not given

Compound	inhibition at 0.5 µM [%]
COc1ccc(NC(=O)C2=C(C)NC(=S)NC2c2ccc(OCc3ccccc3)c(OC)c2)c(OC)c1 (stereo not given)	17.4
COc1ccc(NC(=O)C2=C(C)NC(=O)NC2c2ccc(OCc3ccccc3)c(OC)c2)c(OC)c1 (stereo not given)	9.15

Tested on: not listed separately
Assay: Inhibition of HER2 expression in human MCF7 cells assessed as negative expression region (M1) at 100 nM incubated for 24 hrs by flow cytometry analysis (reference value: 0.98%)
Format: functional
Settings: not given

Compound	inhibition at 0.1 µM [%]
COc1ccc(NC(=O)C2=C(C)NC(=S)NC2c2ccc(OCc3ccccc3)c(OC)c2)c(OC)c1 (stereo not given)	72.1
COc1ccc(NC(=O)C2=C(C)NC(=O)NC2c2ccc(OCc3ccccc3)c(OC)c2)c(OC)c1 (stereo not given)	88.7

Tested on: not listed separately
Assay: Inhibition of EGFR expression in human MCF7 cells assessed as negative expression region (M1) at 25 nM incubated for 24 hrs by flow cytometry analysis (reference value: 0.66%)
Format: functional
Settings: not given

Compound	inhibition at 0.025 µM [%]
COc1ccc(NC(=O)C2=C(C)NC(=S)NC2c2ccc(OCc3ccccc3)c(OC)c2)c(OC)c1 (stereo not given)	32.1
COc1ccc(NC(=O)C2=C(C)NC(=O)NC2c2ccc(OCc3ccccc3)c(OC)c2)c(OC)c1 (stereo not given)	37.6

Tested on: not listed separately
Assay: Cytotoxicity against African green monkey Vero cells assessed as inhibition of cell growth measured after 3 days by MTT assay
Format: toxicity, cell-based
Settings: African green monkey (Chlorocebus sabaeus)

Compound	IC50 at 3 days [µM]
COc1ccc(NC(=O)C2=C(C)NC(=S)NC2c2ccc(OCc3ccccc3)c(OC)c2)c(OC)c1 (stereo not given)	52.9
COc1ccc(NC(=O)C2=C(C)NC(=O)NC2c2ccc(OCc3ccccc3)c(OC)c2)c(OC)c1 (stereo not given)	18.4

Tested on: not listed separately
Assay: Inhibition of HER2 expression in human MCF7 cells assessed as positive expression region (M2) at 25 nM incubated for 24 hrs by flow cytometry analysis (reference value: 99.09%)
Format: functional
Settings: not given

Compound	inhibition at 0.025 µM [%]
COc1ccc(NC(=O)C2=C(C)NC(=S)NC2c2ccc(OCc3ccccc3)c(OC)c2)c(OC)c1 (stereo not given)	85.5
COc1ccc(NC(=O)C2=C(C)NC(=O)NC2c2ccc(OCc3ccccc3)c(OC)c2)c(OC)c1 (stereo not given)	43

Tested on: not listed separately
Assay: Inhibition of HER2 expression in human MCF7 cells assessed as positive expression region (M2) at 500 nM incubated for 24 hrs by flow cytometry analysis (reference value: 99.09%)
Format: functional
Settings: not given

Compound	inhibition at 0.5 µM [%]
COc1ccc(NC(=O)C2=C(C)NC(=S)NC2c2ccc(OCc3ccccc3)c(OC)c2)c(OC)c1 (stereo not given)	22.3
COc1ccc(NC(=O)C2=C(C)NC(=O)NC2c2ccc(OCc3ccccc3)c(OC)c2)c(OC)c1 (stereo not given)	5.16

Tested on: MCF7
Assay: Cytotoxicity against human MCF7 cells assessed as inhibition of cell growth measured after 3 days by MTT assay
Format: functional, cell-based
Settings: MCF7, 72 h

Compound	IC50 [µM]
COc1ccc(NC(=O)C2=C(C)NC(=S)NC2c2ccc(OCc3ccccc3)c(OC)c2)c(OC)c1 (stereo not given)	17
COc1ccc(NC(=O)C2=C(C)NC(=O)NC2c2ccc(OCc3ccccc3)c(OC)c2)c(OC)c1 (stereo not given)	9.38

Tested on: not listed separately
Assay: Inhibition of EGFR expression in human MCF7 cells assessed as positive expression region (M2) at 1000 nM incubated for 24 hrs by flow cytometry analysis (reference value: 99.36%)
Format: functional
Settings: not given

Compound	inhibition at 1 µM [%]
COc1ccc(NC(=O)C2=C(C)NC(=S)NC2c2ccc(OCc3ccccc3)c(OC)c2)c(OC)c1 (stereo not given)	4.17
COc1ccc(NC(=O)C2=C(C)NC(=O)NC2c2ccc(OCc3ccccc3)c(OC)c2)c(OC)c1 (stereo not given)	1.49

Tested on: not listed separately
Assay: Inhibition of EGFR expression in human MCF7 cells assessed as negative expression region (M1) at 1000 nM incubated for 24 hrs by flow cytometry analysis (reference value: 0.66%)
Format: functional
Settings: not given

Compound	inhibition at 1 µM [%]
COc1ccc(NC(=O)C2=C(C)NC(=S)NC2c2ccc(OCc3ccccc3)c(OC)c2)c(OC)c1 (stereo not given)	96
COc1ccc(NC(=O)C2=C(C)NC(=O)NC2c2ccc(OCc3ccccc3)c(OC)c2)c(OC)c1 (stereo not given)	98.6

Tested on: not listed separately
Assay: Inhibition of EGFR expression in human MCF7 cells assessed as positive expression region (M2) at 100 nM incubated for 24 hrs by flow cytometry analysis (reference value: 99.36%)
Format: functional
Settings: not given

Compound	inhibition at 0.1 µM [%]
COc1ccc(NC(=O)C2=C(C)NC(=S)NC2c2ccc(OCc3ccccc3)c(OC)c2)c(OC)c1 (stereo not given)	20.1
COc1ccc(NC(=O)C2=C(C)NC(=O)NC2c2ccc(OCc3ccccc3)c(OC)c2)c(OC)c1 (stereo not given)	16.1

Tested on: not listed separately
Assay: Inhibition of HER2 expression in human MCF7 cells assessed as negative expression region (M1) at 25 nM incubated for 24 hrs by flow cytometry analysis (reference value: 0.98%)
Format: functional
Settings: not given

Compound	inhibition at 0.025 µM [%]
COc1ccc(NC(=O)C2=C(C)NC(=S)NC2c2ccc(OCc3ccccc3)c(OC)c2)c(OC)c1 (stereo not given)	14.9
COc1ccc(NC(=O)C2=C(C)NC(=O)NC2c2ccc(OCc3ccccc3)c(OC)c2)c(OC)c1 (stereo not given)	57.5

Tested on: not listed separately
Assay: Inhibition of EGFR expression in human MCF7 cells assessed as positive expression region (M2) at 25 nM incubated for 24 hrs by flow cytometry analysis (reference value: 99.36%)
Format: functional
Settings: not given

Compound	inhibition at 0.025 µM [%]
COc1ccc(NC(=O)C2=C(C)NC(=S)NC2c2ccc(OCc3ccccc3)c(OC)c2)c(OC)c1 (stereo not given)	68.7
COc1ccc(NC(=O)C2=C(C)NC(=O)NC2c2ccc(OCc3ccccc3)c(OC)c2)c(OC)c1 (stereo not given)	63.2

Tested on: not listed separately
Assay: Inhibition of EGFR expression in human MCF7 cells assessed as negative expression region (M1) at 50 nM incubated for 24 hrs by flow cytometry analysis (reference value: 0.66%)
Format: functional
Settings: not given

Compound	inhibition at 0.05 µM [%]
COc1ccc(NC(=O)C2=C(C)NC(=S)NC2c2ccc(OCc3ccccc3)c(OC)c2)c(OC)c1 (stereo not given)	62.4
COc1ccc(NC(=O)C2=C(C)NC(=O)NC2c2ccc(OCc3ccccc3)c(OC)c2)c(OC)c1 (stereo not given)	66.7

Tested on: not listed separately
Assay: Inhibition of HER2 expression in human MCF7 cells assessed as negative expression region (M1) at 50 nM incubated for 24 hrs by flow cytometry analysis (reference value: 0.98%)
Format: functional
Settings: not given

Compound	inhibition at 0.05 µM [%]
COc1ccc(NC(=O)C2=C(C)NC(=S)NC2c2ccc(OCc3ccccc3)c(OC)c2)c(OC)c1 (stereo not given)	42.6
COc1ccc(NC(=O)C2=C(C)NC(=O)NC2c2ccc(OCc3ccccc3)c(OC)c2)c(OC)c1 (stereo not given)	77.9

Tested on: not listed separately
Assay: Inhibition of HER2 expression in human MCF7 cells assessed as positive expression region (M2) at 50 nM incubated for 24 hrs by flow cytometry analysis (reference value: 99.09%)
Format: functional
Settings: not given

Compound	inhibition at 0.05 µM [%]
COc1ccc(NC(=O)C2=C(C)NC(=S)NC2c2ccc(OCc3ccccc3)c(OC)c2)c(OC)c1 (stereo not given)	57.8
COc1ccc(NC(=O)C2=C(C)NC(=O)NC2c2ccc(OCc3ccccc3)c(OC)c2)c(OC)c1 (stereo not given)	22.4

Tested on: not listed separately
Assay: Inhibition of HER2 expression in human MCF7 cells assessed as positive expression region (M2) at 1000 nM incubated for 24 hrs by flow cytometry analysis (reference value: 99.09%)
Format: functional
Settings: not given

Compound	inhibition at 1 µM [%]
COc1ccc(NC(=O)C2=C(C)NC(=S)NC2c2ccc(OCc3ccccc3)c(OC)c2)c(OC)c1 (stereo not given)	7.42
COc1ccc(NC(=O)C2=C(C)NC(=O)NC2c2ccc(OCc3ccccc3)c(OC)c2)c(OC)c1 (stereo not given)	3.21

Molecular target: Epidermal growth factor receptor (Homo sapiens, UniProt P00533)
Assay: Inhibition of wild type EGFR (unknown origin) incubated for 40 mins in presence of ATP by kinase glo max assay
Settings: not given

Chain of Epidermal growth factor receptor (P00533 whole entry): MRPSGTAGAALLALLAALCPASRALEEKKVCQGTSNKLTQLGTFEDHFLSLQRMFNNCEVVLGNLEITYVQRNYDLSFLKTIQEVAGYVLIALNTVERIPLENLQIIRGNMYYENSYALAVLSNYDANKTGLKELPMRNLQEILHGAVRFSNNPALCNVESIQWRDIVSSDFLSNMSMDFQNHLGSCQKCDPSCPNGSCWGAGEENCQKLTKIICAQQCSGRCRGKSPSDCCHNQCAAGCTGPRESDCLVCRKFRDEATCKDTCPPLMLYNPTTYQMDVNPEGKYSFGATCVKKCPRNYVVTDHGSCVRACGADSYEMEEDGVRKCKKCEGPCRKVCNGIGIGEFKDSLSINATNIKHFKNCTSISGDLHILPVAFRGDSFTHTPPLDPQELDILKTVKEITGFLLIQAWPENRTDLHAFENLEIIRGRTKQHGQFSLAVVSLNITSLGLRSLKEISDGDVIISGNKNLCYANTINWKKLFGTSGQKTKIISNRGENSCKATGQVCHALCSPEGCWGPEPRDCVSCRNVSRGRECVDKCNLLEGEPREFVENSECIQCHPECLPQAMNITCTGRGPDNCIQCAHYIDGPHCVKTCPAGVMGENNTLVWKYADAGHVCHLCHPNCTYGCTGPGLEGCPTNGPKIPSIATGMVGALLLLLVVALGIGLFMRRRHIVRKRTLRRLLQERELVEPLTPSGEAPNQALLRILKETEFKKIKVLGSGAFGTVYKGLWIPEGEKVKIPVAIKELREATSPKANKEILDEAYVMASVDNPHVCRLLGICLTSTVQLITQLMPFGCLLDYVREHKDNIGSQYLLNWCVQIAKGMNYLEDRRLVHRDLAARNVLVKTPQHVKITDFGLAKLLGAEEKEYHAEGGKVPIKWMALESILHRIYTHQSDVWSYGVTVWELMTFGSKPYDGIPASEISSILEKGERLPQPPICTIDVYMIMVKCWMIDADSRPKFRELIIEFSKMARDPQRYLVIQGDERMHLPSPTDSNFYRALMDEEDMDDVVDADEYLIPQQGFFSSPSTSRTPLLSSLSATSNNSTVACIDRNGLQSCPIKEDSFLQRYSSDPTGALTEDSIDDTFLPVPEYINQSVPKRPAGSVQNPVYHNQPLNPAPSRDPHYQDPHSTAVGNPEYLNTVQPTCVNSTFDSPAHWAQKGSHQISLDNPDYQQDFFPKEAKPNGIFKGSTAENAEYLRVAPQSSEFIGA

Compound	IC50 [µM]
COc1ccc(NC(=O)C2=C(C)NC(=S)NC2c2ccc(OCc3ccccc3)c(OC)c2)c(OC)c1 (stereo not given)	0.0768

Tested on: not listed separately
Assay: Inhibition of EGFR expression in human MCF7 cells assessed as negative expression region (M1) at 100 nM incubated for 24 hrs by flow cytometry analysis (reference value: 0.66%)
Format: functional
Settings: not given

Compound	inhibition at 0.1 µM [%]
COc1ccc(NC(=O)C2=C(C)NC(=S)NC2c2ccc(OCc3ccccc3)c(OC)c2)c(OC)c1 (stereo not given)	80.5
COc1ccc(NC(=O)C2=C(C)NC(=O)NC2c2ccc(OCc3ccccc3)c(OC)c2)c(OC)c1 (stereo not given)	84.3
